Measured values taken from PMC10066322 (Scientific Reports, 2023).

Tests used:
PARN1-430 = target: T1, PARN1-430 (Homo sapiens, UniProt O95453); assay: Gel assay of poly(A) RNA shortening by PARN1-430; type: biochemical; conditions: 20 μM compound
T1 construct: expression of the C-terminal truncated protein (1-430 aa of PARN) was soluble; His tag (from the pCold I vector); made in house; host or cells: E. coli Rosetta 2 DE
T1 sequence (O95453 1-430): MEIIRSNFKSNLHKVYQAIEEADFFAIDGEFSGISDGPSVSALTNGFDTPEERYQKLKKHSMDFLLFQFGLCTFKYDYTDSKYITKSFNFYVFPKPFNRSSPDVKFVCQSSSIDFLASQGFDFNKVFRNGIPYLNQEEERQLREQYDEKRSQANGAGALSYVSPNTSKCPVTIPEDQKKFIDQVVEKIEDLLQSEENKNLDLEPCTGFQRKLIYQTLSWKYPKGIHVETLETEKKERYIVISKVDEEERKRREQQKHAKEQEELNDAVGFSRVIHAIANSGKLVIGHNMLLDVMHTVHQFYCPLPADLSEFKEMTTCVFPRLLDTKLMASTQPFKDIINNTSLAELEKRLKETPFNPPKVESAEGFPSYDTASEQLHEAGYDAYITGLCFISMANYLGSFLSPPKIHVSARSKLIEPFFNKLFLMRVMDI
Procedure: PARN1-430 was incubated with a fluorescently labeled RNA with a CCUUUCC sequence followed by a 9 nucleotide-long poly(A) tail and the reaction product was visualized on denaturing acrylamide gels. We observed that PARN removed the 3′ oligo(A) tail from the RNA substrate (Fig. 2c and d). […] Moreover, we observed that PARN is inhibited when treated with adenosine monophosphate (AMP), as has been reported previously.
1 µL of protein (73 nM as final concentration) (stock protein is diluted in 1× lysis buffer (HEPES KOH, pH 7.4, 30 mM, KOAc 100 mM, and Mg(Oac)2 2 mM) was added to 4 µL of 2.5× reaction buffer (Tris–HCl pH 7.4, 10 mM, KCl 50 mM, MgCl2 5 mM). If drug was added, reaction was pre-incubated with drugs for 10 min before 5 µL of RNA (5 µM as final concentration) was added. The reaction was incubated at 37 °C for 20 min. After the incubation, the reaction was either diluted with 2× loading buffer and heated to 95 °C for 5 min for gel or quenched by adding 10 µL of quencher solution (30 µM of 3′-BHQ labeled quench DNA in 1% SDS). Quenched reaction was incubated at room temperature for 10–60 min and fluorescence was measured using Fluorescein wavelength measurement.
15% TBE-Urea gel (Thermo Fisher Scientific) was prerun at 20W for 30 min. RNAs from the reaction was loaded into 15% TBE gels and run at 300 V for 35 min. The gel was visualized using iBright (Invitrogen FL1500).

[1] = tested on: PARN activity in Hela cells; assay: miR-21-5p levels in Hela cells by northern blotting (PARN inhibition in cells); type: cell-based, human; conditions: 10 µM, 2 days
Procedure: 48 h after transfection/drug treatment, cells were collected for either RNA or protein analysis.
Total RNA was extracted from cell lysates using TriZol as per manufacturer’s protocol and DNAse treated. After quantification on Nanodrop, total RNA was separated on an acrylamide 7 M Urea gel. RNA was transferred to a nylon membrane (Nytran SPC, GE Healthcare) using semiwet transfer. After UV/EDC crosslinking, the blot was pre-hybridized and hybridized in PerfectHyb Plus Hybridization Buffer (Sigma Aldrich) at 42 °C. Northern probes have been previously described[11],[48]. After hybridization and washing in 2 × SSC 0.1% SDS wash buffer, blots were exposed to a cassette and imaged on a Typhoon FLA 9500 Phosphoimager. Band intensities were quantified using ImageJ and normalized to the U1 levels under each condition.

PARN = target: T2, PARN (Homo sapiens, UniProt O95453); assay: High-throughput screening fluorescence assay with 8-point IC50 curves; type: biochemical; conditions: high-throughput screening hits; 8 points 1:3 dilution, top 100 µM
T2 construct: expression of the C-terminal truncated protein (1-430 aa of PARN) was soluble; His tag (from the pCold I vector); made in house; host or cells: E. coli Rosetta 2 DE
T2 sequence (O95453 1-430): T1 sequence (O95453 1-430)
Procedure: To identify PARN inhibitors in a high-throughput manner, 24,000 compounds from the Enamine kinase library were tested in a HTS utilizing the fluorescence assay (Fig. 3a).
2 µL of protein (100 nM final concentration) (stock protein was diluted in 1× lysis buffer (HEPES KOH, pH 7.4, 30 mM, KOAc 100 mM, and Mg(OAc)2 2 mM) was added to wells using offline Multidrop Combi nL. The reaction was pre-incubated with 12.5 nL of Sygnature library (Enamine kinase library (HBL-24) (31.25 μM) for 15 min before 2 µL of RNA (10 µM) was added (DMSO was added to control wells using Echo 655). The reaction was incubated at 22 °C for 20 min in Cytomat automatic incubator. After the incubation, the reaction was quenched by adding 4 µL of quencher solution (30 µM of 3′-BHQ labeled quench DNA in 1% SDS) using Multidrop Combi nL. The quenched reaction was incubated at room temperature for 10 min and fluorescence was measured using PHERAstar FSX (λ485/520). For the counter screen, no protein was added to the reaction.
Curves were fitted within Genedata using SmartFit algorithm.

O=C(Nc1ncnc2c1ncn2[C@@H]1O[C@H](CO)C[C@H](F)[C@H]1O)c1ccccc1 [TH18]
inhibition of PARN on gels (PARN1-430): could inhibit PARN at 20 μM, except for TH18
PARN inhibitor in cells [1]: No
IC50 (PARN): 200 nM
